Experiments:
[1] = target: Acetylcholinesterase (Homo sapiens, UniProt P22303); test: Inhibition Assay
Description: (§1) Inhibition constant using AChE or BuChE.

[2] = target: Cholinesterase (Homo sapiens, UniProt P06276); test: Inhibition Assay
Description: as §1

Chain of Cholinesterase (P06276 whole entry): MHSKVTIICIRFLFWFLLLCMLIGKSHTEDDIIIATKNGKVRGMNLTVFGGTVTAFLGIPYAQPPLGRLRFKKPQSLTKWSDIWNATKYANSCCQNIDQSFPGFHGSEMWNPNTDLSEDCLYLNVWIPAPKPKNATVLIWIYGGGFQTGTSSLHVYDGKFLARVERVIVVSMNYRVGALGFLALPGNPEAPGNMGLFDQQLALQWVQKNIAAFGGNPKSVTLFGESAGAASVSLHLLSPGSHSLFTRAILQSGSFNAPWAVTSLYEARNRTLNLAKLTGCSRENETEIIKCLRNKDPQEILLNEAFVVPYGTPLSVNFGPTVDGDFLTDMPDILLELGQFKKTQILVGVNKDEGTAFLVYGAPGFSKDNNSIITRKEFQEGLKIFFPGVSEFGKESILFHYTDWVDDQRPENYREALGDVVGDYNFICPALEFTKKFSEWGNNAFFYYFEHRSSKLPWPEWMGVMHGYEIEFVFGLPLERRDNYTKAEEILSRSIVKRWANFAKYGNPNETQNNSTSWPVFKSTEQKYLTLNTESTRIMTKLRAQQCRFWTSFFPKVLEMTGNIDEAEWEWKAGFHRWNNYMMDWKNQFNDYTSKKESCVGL
Chain of Acetylcholinesterase (P22303 whole entry): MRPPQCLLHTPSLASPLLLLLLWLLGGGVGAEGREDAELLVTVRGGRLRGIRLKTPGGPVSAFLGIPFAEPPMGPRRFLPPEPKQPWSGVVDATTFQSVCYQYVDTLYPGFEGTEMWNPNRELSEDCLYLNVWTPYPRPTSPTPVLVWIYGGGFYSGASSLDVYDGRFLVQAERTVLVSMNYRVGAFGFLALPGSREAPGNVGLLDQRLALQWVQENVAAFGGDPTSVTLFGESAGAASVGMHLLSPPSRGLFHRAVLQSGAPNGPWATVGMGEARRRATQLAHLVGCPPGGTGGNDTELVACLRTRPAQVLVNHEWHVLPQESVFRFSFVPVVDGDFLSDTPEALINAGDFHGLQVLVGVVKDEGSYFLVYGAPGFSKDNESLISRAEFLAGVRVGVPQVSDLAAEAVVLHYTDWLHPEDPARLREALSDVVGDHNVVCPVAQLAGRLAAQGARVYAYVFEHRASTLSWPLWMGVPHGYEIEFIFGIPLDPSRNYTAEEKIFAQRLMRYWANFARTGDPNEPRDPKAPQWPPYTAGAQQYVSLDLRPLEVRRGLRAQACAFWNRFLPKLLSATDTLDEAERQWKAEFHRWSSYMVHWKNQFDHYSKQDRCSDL

`Cc1ccc2c(c1)sc(-c1ccc(N(C)C)cc1)[n+]2C` [Thioflavin T, 1] showed a Ki [1] of 4990 nM and a Ki [2] of 3620 nM.
In the case of `O=C(c1c2ccccc2cc2ccccc12)N1c2ccccc2Sc2ccccc21` [Anthracen-9-yl (10H-phenothiazine-10yl) methanone, 5], the Ki [2] is reported as 16 nM.
`CC(C)N(CCNC(=O)N1c2ccccc2Sc2ccccc21)C(C)C` showed a Ki [1] of 1640 nM and a Ki [2] of 21 nM.
For `CC[N+](C)(C)c1cccc(O)c1` [Edrophonium Chloride, 3], the Ki [2] was 198000 nM.

Source: BindingDB's records for doi:10.1021/bi300955k (Dalhousie University, 2012)
